Laboratory results as given in paper PMC11508974, “Computational Approach to Identifying New Chemical Entities as Elastase Inhibitors with Potential Antiaging Effects” (International Journal of Molecular Sciences, 2024).

Target: T1, porcine pancreatic elastase (PPE) (Sus scrofa, UniProt P00772)
T1 construct: gene CELA1
Assay: Chromogenic elastase inhibition assay with SANA substrate, p-nitroaniline release
Format: biochemical

T1 sequence (P00772 27-266): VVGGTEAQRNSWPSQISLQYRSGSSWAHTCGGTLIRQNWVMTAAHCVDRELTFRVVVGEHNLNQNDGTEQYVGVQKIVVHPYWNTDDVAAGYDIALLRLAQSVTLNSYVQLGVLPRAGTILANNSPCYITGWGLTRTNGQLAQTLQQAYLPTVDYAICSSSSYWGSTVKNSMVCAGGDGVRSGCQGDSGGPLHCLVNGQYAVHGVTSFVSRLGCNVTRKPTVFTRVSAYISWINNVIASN

IC50: 60.4 ± 1.98 µM
Compound: Cc1cc(C)cc(Cn2c(SCC(=O)Nc3ccc(C)cc3Cl)nc3ccccc32)c1 [compound 2, N-(2-chloro-4-methylphenyl)-2-[[1-[(3,5-dimethylphenyl)methyl]-1H-benzimidazol-2-yl]thio]acetamide]
